Common to all, as to assay: KinomeScan profiling
What all share (type): binding

In one assay the target is YES (Homo sapiens, UniProt P07947). The conditions noted are these: read-out: % control. The method, boiled down: (§1)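 Test agents were profiled at a single concentration of 1 μM (DMSO vehicle) on a near-complete set of 468 kinases. Signal is reported relative to vehicle (100%) and a fully displacing control (0%).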
In another assay the target is ERBB3 (Homo sapiens, UniProt P21860). The conditions noted are these: ERBB3, 1 μM; read-out: % control. The method, boiled down: as §1
ERBB3, sequence (P21860 20-1342): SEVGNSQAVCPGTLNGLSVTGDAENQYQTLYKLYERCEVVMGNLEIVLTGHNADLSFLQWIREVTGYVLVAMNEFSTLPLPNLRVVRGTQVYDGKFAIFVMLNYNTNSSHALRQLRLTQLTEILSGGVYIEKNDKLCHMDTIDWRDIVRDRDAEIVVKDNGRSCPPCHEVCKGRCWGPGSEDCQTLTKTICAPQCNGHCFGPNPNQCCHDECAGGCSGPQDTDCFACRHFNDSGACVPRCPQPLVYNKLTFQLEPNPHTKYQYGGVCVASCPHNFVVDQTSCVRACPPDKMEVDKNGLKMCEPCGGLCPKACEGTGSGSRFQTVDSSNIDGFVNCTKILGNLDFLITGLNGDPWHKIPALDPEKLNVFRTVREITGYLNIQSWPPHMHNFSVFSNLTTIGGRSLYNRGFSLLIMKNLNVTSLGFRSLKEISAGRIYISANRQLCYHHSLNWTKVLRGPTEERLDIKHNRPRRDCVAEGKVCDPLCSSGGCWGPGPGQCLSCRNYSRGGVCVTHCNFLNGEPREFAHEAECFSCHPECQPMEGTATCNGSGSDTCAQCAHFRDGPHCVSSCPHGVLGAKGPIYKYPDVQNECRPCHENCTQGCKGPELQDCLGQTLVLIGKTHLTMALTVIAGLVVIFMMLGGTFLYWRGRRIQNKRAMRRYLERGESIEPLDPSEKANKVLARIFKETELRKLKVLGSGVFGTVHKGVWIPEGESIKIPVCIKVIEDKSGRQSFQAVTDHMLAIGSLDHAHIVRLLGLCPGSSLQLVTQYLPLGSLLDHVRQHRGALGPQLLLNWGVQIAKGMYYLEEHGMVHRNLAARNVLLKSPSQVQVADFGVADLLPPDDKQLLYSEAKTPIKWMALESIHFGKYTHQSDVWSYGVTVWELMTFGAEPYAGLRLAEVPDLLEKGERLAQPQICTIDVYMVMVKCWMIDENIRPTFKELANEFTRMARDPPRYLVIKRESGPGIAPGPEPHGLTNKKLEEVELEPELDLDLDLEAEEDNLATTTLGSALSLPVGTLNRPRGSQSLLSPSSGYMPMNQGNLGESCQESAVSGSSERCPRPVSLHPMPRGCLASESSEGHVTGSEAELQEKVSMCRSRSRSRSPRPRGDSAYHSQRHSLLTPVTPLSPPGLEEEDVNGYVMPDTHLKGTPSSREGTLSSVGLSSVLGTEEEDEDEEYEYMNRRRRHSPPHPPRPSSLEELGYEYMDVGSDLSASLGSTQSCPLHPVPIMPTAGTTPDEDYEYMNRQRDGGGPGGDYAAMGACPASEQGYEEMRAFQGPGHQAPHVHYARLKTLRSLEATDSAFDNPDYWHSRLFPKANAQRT
A further assay deals with PAK2 (Homo sapiens, UniProt Q13177). The conditions noted are these: PAK2, 1 μM; read-out: % control. An outline of the steps: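 Selectivity was assessed by binding competition at 1 μM against 468 kinases. Values below 35% of control define an interaction.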
The target of another assay is CDKL1 (Homo sapiens, UniProt Q00532). The conditions noted are these: CDKL1, 1 μM; read-out: % control. The method, boiled down:
as §1

A further assay addresses RET(M918T) (Homo sapiens, UniProt P07949, M918T). The conditions noted are these: read-out: % control. The method, boiled down:
as §1

The next assay addresses T1, ACVR2A (Homo sapiens, UniProt P27037).
T1 construct: purchased KinomeScan®
Conditions: read-out: % control. An outline of the steps: as §1

A further assay has as its target TNIK (Homo sapiens, UniProt Q9UKE5). Conditions: read-out: % control. The method, boiled down:
as §1

The target of the next assay is T2, JNK2 (Homo sapiens, UniProt P45984).
T2 construct: purchased KinomeScan®
T2 sequence (P45984 whole entry): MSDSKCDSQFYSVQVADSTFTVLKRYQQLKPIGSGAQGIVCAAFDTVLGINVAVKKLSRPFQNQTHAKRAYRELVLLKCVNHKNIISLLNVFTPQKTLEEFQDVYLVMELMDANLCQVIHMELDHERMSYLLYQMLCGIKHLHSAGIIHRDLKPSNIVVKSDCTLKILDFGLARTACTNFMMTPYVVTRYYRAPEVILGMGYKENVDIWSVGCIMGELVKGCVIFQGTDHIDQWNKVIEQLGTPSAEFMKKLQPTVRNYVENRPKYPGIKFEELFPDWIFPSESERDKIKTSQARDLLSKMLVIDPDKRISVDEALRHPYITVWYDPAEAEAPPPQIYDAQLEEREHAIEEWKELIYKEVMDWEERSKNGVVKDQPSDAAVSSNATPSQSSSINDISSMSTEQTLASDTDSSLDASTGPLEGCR
The conditions noted are these: JNK2, 1 μM; read-out: % control. The method, boiled down:
as §1

A further assay has as its target T3, IKK-epsilon (Homo sapiens, UniProt Q14164).
T3 construct: purchased KinomeScan®
T3 sequence (Q14164 1-716): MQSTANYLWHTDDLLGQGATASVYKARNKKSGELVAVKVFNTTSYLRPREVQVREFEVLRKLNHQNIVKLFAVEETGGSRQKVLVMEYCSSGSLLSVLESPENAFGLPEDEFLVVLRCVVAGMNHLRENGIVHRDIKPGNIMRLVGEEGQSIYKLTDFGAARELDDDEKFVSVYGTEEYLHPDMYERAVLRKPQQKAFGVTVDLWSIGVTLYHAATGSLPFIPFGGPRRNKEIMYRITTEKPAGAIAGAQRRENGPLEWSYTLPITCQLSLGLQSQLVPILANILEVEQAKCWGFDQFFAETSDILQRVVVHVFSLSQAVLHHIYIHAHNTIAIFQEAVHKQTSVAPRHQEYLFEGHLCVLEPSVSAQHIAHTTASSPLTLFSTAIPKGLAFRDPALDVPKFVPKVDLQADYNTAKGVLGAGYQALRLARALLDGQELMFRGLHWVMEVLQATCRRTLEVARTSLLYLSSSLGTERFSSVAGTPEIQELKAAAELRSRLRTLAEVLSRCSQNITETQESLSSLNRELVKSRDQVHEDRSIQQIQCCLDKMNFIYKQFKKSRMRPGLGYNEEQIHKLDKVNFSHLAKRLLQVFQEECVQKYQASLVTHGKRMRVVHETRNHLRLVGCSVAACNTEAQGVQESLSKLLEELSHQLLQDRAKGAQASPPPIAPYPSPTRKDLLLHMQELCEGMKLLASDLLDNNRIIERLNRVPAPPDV
Conditions: read-out: % control. An outline of the steps: as §1

The next assay addresses ZAK (Homo sapiens, UniProt Q9NYL2). The conditions noted are these: read-out: % control. The method, boiled down:
as §1

The target in another assay is T4, PHKG2 (Homo sapiens, UniProt P15735).
T4 sequence (P15735 1-406): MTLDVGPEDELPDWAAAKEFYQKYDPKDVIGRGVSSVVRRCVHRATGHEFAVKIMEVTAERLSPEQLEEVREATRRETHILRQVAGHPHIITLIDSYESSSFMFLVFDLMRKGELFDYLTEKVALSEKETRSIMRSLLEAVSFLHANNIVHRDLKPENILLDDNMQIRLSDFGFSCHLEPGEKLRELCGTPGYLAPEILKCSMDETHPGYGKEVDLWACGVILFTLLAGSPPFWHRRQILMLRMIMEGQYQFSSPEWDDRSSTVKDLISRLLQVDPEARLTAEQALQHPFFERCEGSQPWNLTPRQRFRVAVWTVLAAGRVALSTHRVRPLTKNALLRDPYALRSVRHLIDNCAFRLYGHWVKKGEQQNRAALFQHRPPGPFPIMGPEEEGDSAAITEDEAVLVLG
The conditions noted are these: PHKG2, 1 μM; read-out: % control. An outline of the steps: as §1

The target of another assay is CAMK2A (Homo sapiens, UniProt Q9UQM7). Conditions: read-out: % control. An outline of the steps:
as §1

CAMK2A, sequence (Q9UQM7 whole entry): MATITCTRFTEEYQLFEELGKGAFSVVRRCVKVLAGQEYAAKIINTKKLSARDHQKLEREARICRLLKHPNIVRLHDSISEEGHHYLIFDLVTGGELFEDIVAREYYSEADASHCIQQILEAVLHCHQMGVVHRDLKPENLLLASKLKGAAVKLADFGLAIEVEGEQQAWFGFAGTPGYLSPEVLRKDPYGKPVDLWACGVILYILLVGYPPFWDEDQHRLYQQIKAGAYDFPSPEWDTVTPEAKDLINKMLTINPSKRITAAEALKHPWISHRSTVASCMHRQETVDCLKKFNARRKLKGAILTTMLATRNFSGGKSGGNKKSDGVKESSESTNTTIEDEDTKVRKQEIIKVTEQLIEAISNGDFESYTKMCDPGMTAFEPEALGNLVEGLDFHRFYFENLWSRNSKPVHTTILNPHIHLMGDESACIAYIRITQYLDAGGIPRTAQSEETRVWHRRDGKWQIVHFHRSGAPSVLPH
CDKL1, sequence (Q00532 whole entry): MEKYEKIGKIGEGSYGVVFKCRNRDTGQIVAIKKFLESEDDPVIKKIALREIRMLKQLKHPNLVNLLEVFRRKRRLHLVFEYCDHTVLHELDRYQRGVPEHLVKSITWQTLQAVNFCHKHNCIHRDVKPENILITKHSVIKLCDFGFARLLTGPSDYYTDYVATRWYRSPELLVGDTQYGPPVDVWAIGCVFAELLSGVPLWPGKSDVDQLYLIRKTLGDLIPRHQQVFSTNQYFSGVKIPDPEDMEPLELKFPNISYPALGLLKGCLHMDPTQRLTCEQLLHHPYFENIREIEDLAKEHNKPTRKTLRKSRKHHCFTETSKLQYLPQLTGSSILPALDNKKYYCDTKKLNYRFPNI
YES, sequence (P07947 whole entry): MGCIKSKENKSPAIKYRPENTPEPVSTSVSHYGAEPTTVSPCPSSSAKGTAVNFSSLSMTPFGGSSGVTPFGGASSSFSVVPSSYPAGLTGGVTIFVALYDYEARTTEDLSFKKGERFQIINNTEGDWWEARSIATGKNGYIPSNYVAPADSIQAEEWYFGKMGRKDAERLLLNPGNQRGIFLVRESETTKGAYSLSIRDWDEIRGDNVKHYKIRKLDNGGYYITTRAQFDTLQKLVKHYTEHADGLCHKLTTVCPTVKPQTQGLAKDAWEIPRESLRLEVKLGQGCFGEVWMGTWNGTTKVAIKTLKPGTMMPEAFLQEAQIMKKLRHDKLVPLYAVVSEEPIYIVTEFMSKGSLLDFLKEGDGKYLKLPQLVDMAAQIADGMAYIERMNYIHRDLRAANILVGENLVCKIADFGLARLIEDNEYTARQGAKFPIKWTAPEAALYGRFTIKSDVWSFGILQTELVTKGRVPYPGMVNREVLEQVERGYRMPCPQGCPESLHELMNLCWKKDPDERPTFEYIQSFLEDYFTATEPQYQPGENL
RET(M918T), sequence (P07949 29-1114 M918T): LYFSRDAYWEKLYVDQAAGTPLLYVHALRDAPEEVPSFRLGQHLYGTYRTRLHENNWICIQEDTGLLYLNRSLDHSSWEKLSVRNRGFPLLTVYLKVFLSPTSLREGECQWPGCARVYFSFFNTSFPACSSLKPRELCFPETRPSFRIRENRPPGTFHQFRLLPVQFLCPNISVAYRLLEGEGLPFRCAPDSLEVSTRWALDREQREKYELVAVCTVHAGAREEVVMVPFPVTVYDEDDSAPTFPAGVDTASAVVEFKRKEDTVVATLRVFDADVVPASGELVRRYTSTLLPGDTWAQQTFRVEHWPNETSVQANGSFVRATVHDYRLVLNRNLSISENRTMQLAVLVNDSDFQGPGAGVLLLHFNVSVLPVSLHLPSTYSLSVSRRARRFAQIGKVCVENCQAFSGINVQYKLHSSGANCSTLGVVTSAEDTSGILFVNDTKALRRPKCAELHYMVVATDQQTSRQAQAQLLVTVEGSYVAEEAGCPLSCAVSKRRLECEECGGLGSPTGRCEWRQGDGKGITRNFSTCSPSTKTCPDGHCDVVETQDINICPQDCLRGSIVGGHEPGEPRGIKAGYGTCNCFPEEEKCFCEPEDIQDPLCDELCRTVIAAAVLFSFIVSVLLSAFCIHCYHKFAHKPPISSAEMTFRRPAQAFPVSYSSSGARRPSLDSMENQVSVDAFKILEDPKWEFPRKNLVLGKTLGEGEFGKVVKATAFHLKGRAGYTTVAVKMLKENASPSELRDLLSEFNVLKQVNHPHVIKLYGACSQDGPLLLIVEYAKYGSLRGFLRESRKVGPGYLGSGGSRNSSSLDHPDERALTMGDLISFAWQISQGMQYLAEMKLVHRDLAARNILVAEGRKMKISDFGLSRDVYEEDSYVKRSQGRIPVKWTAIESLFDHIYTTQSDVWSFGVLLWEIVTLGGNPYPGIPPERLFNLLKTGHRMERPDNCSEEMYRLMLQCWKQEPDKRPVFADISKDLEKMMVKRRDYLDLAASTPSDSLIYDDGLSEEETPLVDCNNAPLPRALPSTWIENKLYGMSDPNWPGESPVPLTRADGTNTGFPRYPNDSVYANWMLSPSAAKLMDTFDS
ZAK, sequence (Q9NYL2 whole entry): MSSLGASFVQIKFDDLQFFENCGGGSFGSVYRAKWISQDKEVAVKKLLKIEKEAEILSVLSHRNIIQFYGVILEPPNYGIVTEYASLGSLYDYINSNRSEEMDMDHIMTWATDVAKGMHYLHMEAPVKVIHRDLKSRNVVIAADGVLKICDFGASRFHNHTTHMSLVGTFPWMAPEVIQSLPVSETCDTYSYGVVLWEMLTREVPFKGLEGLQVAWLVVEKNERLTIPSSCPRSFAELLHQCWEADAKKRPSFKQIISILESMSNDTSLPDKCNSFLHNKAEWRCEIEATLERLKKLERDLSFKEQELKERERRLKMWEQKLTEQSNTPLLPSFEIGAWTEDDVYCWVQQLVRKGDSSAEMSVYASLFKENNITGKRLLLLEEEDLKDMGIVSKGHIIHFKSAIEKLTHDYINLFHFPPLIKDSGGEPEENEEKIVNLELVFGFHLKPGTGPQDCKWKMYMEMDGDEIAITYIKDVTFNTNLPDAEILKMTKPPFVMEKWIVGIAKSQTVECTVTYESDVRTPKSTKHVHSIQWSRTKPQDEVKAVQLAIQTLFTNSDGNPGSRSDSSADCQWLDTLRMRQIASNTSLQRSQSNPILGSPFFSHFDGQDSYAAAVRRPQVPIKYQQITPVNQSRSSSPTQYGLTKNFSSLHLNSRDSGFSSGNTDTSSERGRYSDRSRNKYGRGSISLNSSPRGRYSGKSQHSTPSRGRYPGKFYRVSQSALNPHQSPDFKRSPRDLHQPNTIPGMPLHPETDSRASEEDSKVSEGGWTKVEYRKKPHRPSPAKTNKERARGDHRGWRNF

`CNc1c(-c2ccc(C(=O)N3CCC(N4CCOCC4)CC3)cc2)cnc2[nH]cc(Cl)c12` [Compound 96, (4-(3-chloro-4-(methylamino)-1H-pyrrolo[2,3-b]pyridin-5-yl)phenyl)(4-morpholinopiperidin-1-yl)methanone]: the remaining binding at 1 µM stood at 100% at YES; 86% at ERBB3; 96% on PAK2; 78% on CDKL1; 72% on RET(M918T); 97% at ACVR2A. For the same molecule, the remaining binding at 1 µM came to 14% at TNIK; 0.85% at JNK2; 68% on IKK-epsilon; 75% on ZAK; 19% at PHKG2; 96% at CAMK2A.
In the case of `O=C(c1ccc(-c2cnc3[nH]cc(Cl)c3c2NC2CCCC2)cc1)N1CCC(N2CCOCC2)CC1` [Compound 101, (4-(3-chloro-4-(cyclopentylamino)-1H-pyrrolo[2,3-b]pyridin-5-yl)phenyl)(4-morpholinopiperidin-1-yl)methanone], the remaining binding at 1 µM at YES turned out to be 100%; at ERBB3, 55%; at PAK2, 80%; on CDKL1, 100%; on RET(M918T), 95%; on ACVR2A, 95%. Besides, the remaining binding at 1 µM on TNIK was 89%; on JNK2, 8.8%; on IKK-epsilon, 99%; on ZAK, 86%; at PHKG2, 100%; on CAMK2A it was 92%.
Consider `CNc1c(-c2cnn([C@H]3CCN(C(C)=O)C[C@@H]3F)c2)cnc2[nH]cc(Cl)c12` [Compound 77, 1-((3S,4S)-4-(4-(3-chloro-4-(methylamino)-1H-pyrrolo[2,3-b]pyridin-5-yl)-1H-pyrazol-1-yl)-3-fluoropiperidin-1-yl)ethan-1-one], for which the remaining binding at 1 µM came to 100% at YES; 88% at ERBB3; 100% on PAK2; 76% on CDKL1; 33% at RET(M918T); 99% at ACVR2A. The remaining binding at 1 µM on TNIK worked out at 29%; on JNK2, 17%; at IKK-epsilon, 64%; at ZAK, 70%; at PHKG2, 52%; at CAMK2A, 100%.

The record behind these values is patent publication US12275731B2, “Azaindole inhibitors of wild-type and mutant forms of LRRK2” (DANA-FARBER CANCER INSTITUTE, INC., priority 2018, dated 2025).
